Laboratory results reported in EP1352977A2, “Novel Desulfitobacterium strain for the degradation of chloroalkenes” (UNIVERSITEIT GENT, priority 2002, dated 2003).
Entries after “also recorded” stand apart in the source; their conditions may differ.

What was measured:
Format in all cases: cell-based, Desulfitobacterium dichloroeliminans strain DCA1
[1] = tested on: Desulfitobacterium strain DCA1; experiment: Substrate range determination: growth on and dechlorination product from chlorinated substrates
[2] = tested on: Desulfitobacterium strain DCA1; experiment: Inhibition of 1,2-DCA dechlorination / toxicity to strain DCA1
[3] = tested on: Desulfitobacterium strain DCA1; experiment: Growth of strain DCA1 on other electron acceptors; settings: for growth in the presence of electron acceptor: 3mM, electron donors lactate and H2

ClCC(Cl)Cl [1,1,2-TCA, 1,1,2-trichloroethane]
growth of strain DCA1 [1]: sustained growth; also recorded: supported growth

ClCC(Cl)CCl [1,2,3-trichloropropane]
dechlorination reaction [1]: no dechlorination reaction was observed

CCC(Cl)CCl (stereo not drawn) [1,2-DCB, 1,2-dichlorobutane]
growth of strain DCA1 [1]: sustained growth

CC(Cl)CCl (stereo not drawn) [1,2-dichloropropane]
growth of strain DCA1 [1]: sustained growth

OCC(Cl)CCl (stereo not drawn) [2,3-DC-propanol]
dechlorination reaction [1]: no dechlorination reaction was observed

ClC(Cl)Cl [Chloroform, reference compound]
inhibition at 50 µM ([2]; Desulfitobacterium dichloroeliminans, DCA1, read-out: inhibition of the dechlorination of 1,2-DCA): < 50%

CC(Cl)C(C)Cl [D-2,3-DCB, D-2,3-dichlorobutane]
growth of strain DCA1 [1]: sustained growth

O=C(O)/C=C/C(=O)O [Fumarate]
toxicity to strain DCA1 [2]: not toxic | conversion as electron acceptors [3]: not converted

CC(Cl)C(C)Cl [L-2,3-DCB, L-2,3-dichlorobutane]
growth of strain DCA1 [1]: sustained growth

O=NO [NO2^-]
inhibition of the dechlorination ([2]; 2.5 mM): fully inhibited | conversion as electron acceptors [3]: not converted

O=[N+]([O-])O [NO3^-]
growth in the presence of electron acceptor [3]: grew

O=O [O2]
conversion as electron acceptors [3]: not converted

CCCI [Propyliodide, reference compound]
inhibition of the dechlorination ([2]; 50 µM, in the dark, light reversible): fully inhibited

O=S(O)(O)=S [S2O3^2-]
growth in the presence of electron acceptor [3]: grew

O=S(O)O [SO3^2-]
growth in the presence of electron acceptor [3]: grew

O=S(=O)(O)O [SO4^2-]
conversion as electron acceptors [3]: not converted

Cl[C@H]1[C@H](Cl)[C@@H](Cl)[C@@H](Cl)[C@H](Cl)[C@H]1Cl [lindane]
dechlorination reaction [1]: no dechlorination reaction was observed

C[C@H](Cl)[C@@H](C)Cl [meso-2,3-DCB, meso-2,3-dichlorobutane]
growth of strain DCA1 [1]: sustained growth

O=C(O)[C@@H](Br)[C@@H](Br)C(=O)O [meso-2,3-dibromosuccinate]
dechlorination reaction [1]: no dechlorination reaction was observed
